In data set [1] the test system is ILM. The experiment in a line: BBG in ILM staining, effects and safety in human eyes (first attempt, 16 eyes). It counts as in vivo. As for the experimental part:
Sixteen eyes of 16 patients with a macular hole (MH) and epiretinal membranes (ERMS) were recruited from the outpatient unit of Kyushu University Hospital (Fukuoka, Japan) between August and September 2004. Patients with ocular diseases such as glaucoma, uveitis, and corneal disorder were excluded. This study was carried out with the approval from the appropriate institutional Ethics Committee and was performed in accordance with the ethical standards laid down in the 1989 Declaration of Helsinki. The possible advantages and risks of the present treatment were explained to the patients before surgery and informed consent was obtained from all patients. […] The final concentration of BBG was 0.25 mg/ml. […] Removal of the ILM was performed using ILM forceps (D.O.R.C.; Dutch Ophthalmic Research Center International b.v., Netherlands).
Postoperative examinations included slitlamp microscopy, opthalmoscopy, best corrected visual acuity (BCVA) and intraocular pressure. The visual field was evaluated with Humphrey Field Analyzer II (Humphrey Systems, Dublin, Calif., USA) after 2 months.

Data set [2] has as its system corneal endothelium. The conditions noted are these: single anterior chamber injection; for apoptotic cell death (TUNEL) in corneal stromal cells, endothelium, ciliary body and lens cells: BBG 0.01-10 mg/ml, ICG 5 mg/ml.
The subject of data set [3] is ILM.
Method: Since ILM peeling is impossible in rat eyes, the inventors examined the ability of BBG to stain the ILM in primate eyes. Two eyes from two cynomolgus monkeys at 3 years of age were used in this study. The animals were restrained in a squeeze cage and injected intramuscularly in the thigh with 20 mg/kg of ketamine hydrochloride (Sankyo Yell Pharmaceutical Products Co. Ltd., Japan) for general anesthesia. The monkeys were subsequently transported to an operating room. Surgery consisted of a standard three port pars plana vitrectomy with induction of a posterior vitreous detachment by suction with a vitrectomy cutter using triamcinolone acetonide injection for vitreous visualization.
Ten milligrams of BBG were dissolved in 20 ml of intraocular irrigating solution and sterilized with a syringe filter. The final concentration of BBG was 0.5 mg/ml. The prepared BBG solution (0.5 ml) was then injected gently into the vitreous cavity and washed out immediately with balanced salt solution (BSS Plus (Registered trademark), Santen, Osaka, Japan). Removal of the ILM was performed using ILM forceps.
Data set [4] has as its system retina.
The subject of data set [5] is anterior capsule. The experiment in a line: Capsular staining ability of BBG in pig eyes. How it is done:
The capsular staining ability of BBG was assessed in pig eyes using graded concentrations of the dye.
The pig eyes were obtained from a local slaughterhouse and transported to the laboratory on ice. The extraocular muscles and other connective tissues were carefully cut off and the eyes were placed on the operation chamber. The BBG solution was prepared using the following method. Twenty milligrams of BBG (Coomassie. brilliant blue G 250; Signa-Aldrich, St. Louis, USA) were dissolved in 10 ml of intraocular irrigating solution (OPEGUARD.-MA, Senjyu Pharmaceutical Co., Ltd., Osaka, Japan) and sterilized with a syringe filter (Minisart. Sartorius AG, Goettingen, Germany). Under the operation microscope, the capsular staining by BBG was examined as follows. […] The anterior chamber was immediately irrigated by enhanced balanced salt solution (BSS Plus®, Santen Pharmaceuticals, Japan) and the excessive dye was easily washed out.
To deepen the anterior chamber, 1% sodium hyaluronate (Healon®, Pharmacia, Uppsala, Sweden) was injected. A CCC was initiated by preparing a small triangular anterior capsular flap with a bent 26-gauge disposable needle mounted on a viscoelastic syringe. The CCC was completed using a cystotome or capsulorhexis forceps.

Data set [6] can be described thus: Osmolarity and pH of the BBG solution. It counts as physicochemical.
The subject of data set [7] is retina. The following applies: rat, in vivo.
The test system of data set [8] is retina. The conditions noted are these: rat, in vivo. The source holds these as a separate data set.
Method: Brown Norway rats (n=78 males, 8 weeks old, Kyudo, Fukuoka, Japan) were anesthetized with an intraperitoneal injection of ketamine hydrochloride at a dose of 75 mg/kg body weight. One eye from each animal (total of n=6 per dose group) was vitrectomized using 0.05 ml of pure SF6 gas as described previously. Following the gas injection, 0.05 ml of BBG solution was injected into the vitreous cavity of each vitrectomized eye using a microscope for enhanced magnification during surgery. […] Twenty-four sham-operated eyes (injected with SF6 followed by 0.05 ml of intraocular irrigating solution) were used as controls.
The eyes were enucleated on day 14 and at 2 months post-operation and fixed in 1% glutaraldehyde and 1% paraformaldehyde in PBS. The specimens were postfixed in veronal acetate buffer osmium tetroxide (2%), dehydrated in ethanol and water, and embedded in Epon. Ultrathin sections were cut from blocks and mounted on copper grids.
Data set [9] has as its system ILM. This is another data set of the same source.
In data set [10] the test system is anterior capsule. The experiment in a line: BBG-assisted continuous curvilinear capsulorhexis in a human eye. It is filed as in vivo. How it is done:
A person with a white mature cataract underwent BBG-assisted CCC and phacoemulsification with intraocular lens (IOL) implantation in August 2004. The patient had no other ocular diseases, such as glaucoma, uveitis or corneal disorders. Coomassie® BBG 250 (Sigma-Aldrich, St. Louis, USA) was dissolved in intraocular irrigating solution (OPEGUARD®-MA; Senjyu Pharmaceutical Co., Ltd., Osaka, Japan) at a dose of 0.25 mg/ml and sterilized with a syringe filter. The BBG solution was gently injected into the anterior chamber and then washed out immediately with balanced salt solution (BSS).

Data set [11] has as its system cornea. The experiment in a line: Anterior chamber injection of dyes in rats: light microscopy (HE). It is filed as in vivo, Brown Norway rats. The conditions noted are these: single anterior chamber injection; BBG 0.01-10 mg/ml, ICG 5 mg/ml, TB 1 mg/ml; 2 weeks and 2 months. From the text:
The eyes were fixed in 4% paraformaldehyde and cut in half, embedded in paraffin, deparaffinized in xylene, rehydrated in ethanol, and washed in phosphate-buffered saline (PBS). The 4 μm thick sections were stained by hematoxylin and eosin, and observed by light microscope.

The test system of data set [12] is corneal cells. The data set can be described thus: Anterior chamber injection of dyes in rats: transmission electron microscopy. The following applies: single anterior chamber injection; BBG 10 mg/ml, ICG 5 mg/ml, TB 1 mg/ml.
Method: Brown Norway rats (Kyudo, Fukuoka, Japan), postnatal 8 weeks, were studied as follows. The rats were anesthetized with an intraperitoneal injection of pentobarbital and their pupils were dilated with topical 1% tropicamide and 2.5% phenylephrine hydrochloride. The anterior chamber was entered through the clear cornea with a 30-gauge needle mounted on a syringe. Then a single anterior chamber injection was performed with each dye, BBG (10, 1, 0.5, 0.25, 0.1 and 0.01 mg/ml), ICG (5 mg/ml), trypan blue (1 mg/ml), and the control OPEGUARD. solution (n=6 for each dye, total 54 eyes).
The dye remained in the anterior chamber and was followed by biomicroscopic examination for 2 months. The eyes were enucleated at 2 weeks and 2 months after operation. The eyes were analyzed by light microscopy, transmission and scanning electron microscopy.
The eyes were enucleated and the anterior segments were fixed in 1% glutaraldehyde and 1% paraformaldehyde in PBS. The specimens were postfixed in veronal acetate buffer osmium tetroxide (2%), dehydrated in ethanol and water, and embedded in Epon. Ultrathin sections were cut from blocks and mounted on copper grids.
Data set [13] relates to anterior capsule. The conditions noted are these: stated for comparison, no test described; cited from earlier work.
Where [14] appears, read: 0.25 mg/ml, 0.5 ml intravitreal, washed out immediately.
Setting [15] is: individual patient case, BBG 0.25 mg/ml.
Where [16] appears, read: BBG 10 mg/ml in intraocular irrigating solution (OPEGUARD-MA).

Molecules are shown by their SMILES. Several values for one entry are separate records, joined by “and”; a condition that tells them apart may be missing. Identical values can stand only once. Entries after “also recorded” stand apart in the source; their conditions may differ. Like-named read-outs stand apart in the source and are kept apart here.

In the case of `CCOc1ccc(Nc2ccc(/C(=C3C=C/C(=[N+](/CC)Cc4cccc(S(=O)(=O)[O-])c4)C=C/3C)c3ccc(N(CC)Cc4cccc(S(=O)(=O)[O-])c4)cc3C)cc2)cc1.[Na+]` [BBG, Brilliant Blue G], in data set [1] (0.25 mg/ml), the “staining of the ERMS” value was “could not be confirmed”. Also, the ILM staining result in [1] (setting [14]) is given as “stained a light blue color”. Moreover, in data set [1] (16 eyes, BBG 0.25 mg/ml), the “elevation of intraocular pressure” value was “None of the patients had an elevation of intraocular pressure”. Further, the visual acuity entry in data set [1] (16 eyes, MH and ERM, BBG 0.25 mg/ml assisted peeling) is “recovered in all cases”. In data set [1] (setting [15]), the “Postop. Retinal status” value was “MH closed; also recorded: Fold (−); also recorded: Macular”; the complications entry was “Peripheral (2×) and none (13×) and Vitreous”. Further, the “Postop. BCVA” value in data set [1] (individual patient case, BBG 0.25 mg/ml, follow up 2-4 months) was 20/50 (2×) and 20/63 (2×) and 20/25 (2×) and 20/32 (4×) and 20/40 (3×) and 20/16 and 20/20. In addition, in data set [1] (within the observation period), the “other adverse effects due to BBG” value was “No other adverse effects”. Moreover, in data set [2], the “apoptotic cell death (TUNEL) in corneal stromal cells, endothelium, ciliary body and lens cells” value was “no TUNEL staining was observed”. The ILM staining entry in [3] (0.5 mg/ml, 0.5 ml into vitreous cavity, washed out immediately) was “stained a light blue color”. Also, the “concentration of BBG required to stain the ILM of primates in comparison with ICG” value in [3] (ratio to ICG concentration) is “about 1/10”. The “apoptotic cell death of retinal cells” value in data set [4] (all BBG dose groups, after 2 months) was “had not undergone apoptotic cell death”. Also, in [4] (intravitreal 10 mg/ml, day 14), the “apoptotic cell death in retina (TUNEL)” value is “one case of apoptotic cell death was observed from among ten sections” and the “apoptotic cell ratio compared with control sections” value is “not significantly different”. Moreover, the “TUNEL staining in the retina” value in data set [4] (intravitreal lower doses, day 14) is “no TUNEL staining was observed”. Further, the “concentration providing satisfactory staining of the anterior capsule” value in data set [5] was determined as 0.25 mg/mL. In addition, the capsular staining result in data set [5] (0.1 mg/ml and 0.01 mg/ml) is on record as “obscure”. The “staining of the anterior capsule” value in data set [5] (0.25 mg/ml to 1 mg/ml, staining deepened with concentration) is “stained the anterior capsule homogenously”. The “minimal concentration needed to produce high quality staining with clear visualization” value in [5] (pig eye anterior capsule) amounted to 0.25 mg/mL. Also, in data set [6] (BBG 0.01 mg/ml in OPEGUARD-MA), the Osmolarity is on record as 298 mOsm/KgH20 and the pH is 7.41. Moreover, in [6] (BBG 0.1 mg/ml in OPEGUARD-MA), the Osmolarity was 298 mOsm/KgH20 and the pH was determined as 7.41. Further, in data set [6] (BBG 0.25 mg/ml in OPEGUARD-MA), the “osmolarity of prepared BBG solution” value was 289 mOsm and the “pH of prepared BBG solution” value turned out to be 7.44. In data set [6] (BBG 1.0 mg/ml in OPEGUARD-MA), this molecule displayed an Osmolarity of 300 mOsm/KgH20 and a pH of 7.42. In [6] (setting [16]), this molecule came in with an Osmolarity of 310 mOsm/KgH20 and a pH of 7.41. Further, in [7], the “infiltration of inflammatory cells (light microscopy)” value is recorded as “no infiltration of inflammatory cells was observed” and the “toxic effects such as corneal edema, severe retinal edema, or endophthalmitis (surgical microscopy)” value was “no toxic effects”. For the same molecule, the “changes in inner nuclear, outer nuclear and retinal pigment epithelial cell layers (TEM)” value in [8] is recorded as “no remarkable changes were observed”. In addition, in data set [9] (0.25 mg/ml), the “staining of the ERM in ERM cases” value is “could not be confirmed”. The “ILM staining in MH cases” value in [9] (setting [14]) is on record as “stained a bright blue color instantly”. Also, in data set [9] (0.25 mg/ml, second injection after ERM peeling), the “staining of the ILM of the area where the ERM had been removed” value is reported as “well stained”. Further, in data set [9] (20 eyes), the “removal of the ILM including the ERM during surgery” value was “removed from all 20 eyes successfully”. The “patients with improvement of 2 or more lines on the Snellen chart” value in data set [9] (ERM cases, eight of 10 patients) amounted to 80%. In addition, the “mean foveal thickness of retina measured with OCT, postoperative” value in data set [9] (ERM cases, preoperative 454.7±141.3 μm) amounted to 249.4±71.3 μm. Besides, the “postoperative median BCVA” value in data set [9] (ERM cases, preoperative median 20/50) is 20/32. Also, the “eyes with visual acuity improved by 2 or more Snellen lines” value in data set [9] (MH cases, 9 of 10 eyes) was 90%. The “postoperative median BCVA” value in [9] (MH cases, preoperative median 20/100) is given as 20/32. In addition, the “closure of MH (ophthalmoscopy and OCT)” value in data set [9] (all 10 MH cases) was “completely closed anatomically”. In addition, in [9] (in vivo), the “complication: protraction of vitreous hemorrhage” value was “one case”, the “complications: iatrogenic peripheral retinal breaks” value is on record as “two cases”, the “elevation of IOP” value is 26 mmHg and the “other adverse effects such as retinal pigment epithelium (RPE) atrophy” value was “No other adverse effects”. Further, the “Postop. Retinal status” value in [9] (individual MH case) was “MH closed”. Moreover, in [10] (0.25 mg/ml into anterior chamber, immediately irrigated, white mature cataract), the “visibility of the anterior capsule during CCC” value is given as “clearly visible”. Besides, the “corneal endothelial cell loss” value in [10] (after 2 months) is 0.8%. Moreover, the “visual acuity after surgery” value in [10] (improved from light perception (LP)) is 20/20. The “acute toxicity (corneal edema, severe inflammation or elevated intraocular pressure)” value in data set [10] (the following day) is “no acute toxicity”.

Regarding `CC1(C)C(/C=C/C=C/C=C/C=C2\N(CCCCS(=O)(=O)O)c3ccc4ccccc4c3C2(C)C)=[N+](CCCCS(=O)(=O)[O-])c2ccc3ccccc3c21` [ICG, Indocyanine green], in data set [11], the “changes in hematoxilin and eosin stained sections of the cornea” value is on record as “no remarkable changes”. Besides, the “apoptotic cell death (TUNEL) in corneal stromal cells, endothelium, ciliary body and lens cells” value in data set [2] is on record as “no apparent apoptotic cell death was detected”. Moreover, the “ultrastructure of corneal cells and endothelium (TEM)” value in [12] is “some endothelial cells demonstrated signs of mitochondrial swelling”. Moreover, the “concentration required for staining of the anterior capsule (comparison dyes)” value in data set [13] was 5 mg/mL.

With `Cc1cc(-c2ccc(/N=N/c3c(S(=O)(=O)O)cc4cc(S(=O)(=O)O)cc(N)c4c3O)c(C)c2)ccc1/N=N/c1c(S(=O)(=O)O)cc2cc(S(=O)(=O)O)cc(N)c2c1O` [TB, Trypan Blue], the “apoptotic cell death of corneal endothelium, share of the total endothelial cells” value in data set [2] (TB 1 mg/ml) turned out to be 2%. Also, the “concentration required for staining of the anterior capsule (comparison dyes)” value in data set [13] was 1 mg/mL.

These data come from patent publication US7731941B2, “Staining composition for staining an ophthalmic membrane” (priority 2004, dated 2010).
